# Data published in US20050112185A1, “Positively charged lipid and liposome with the lipid” (priority 2002, published 2005).
# How the values were obtained:
# [1] = system: mouse melanoma cell B16BL6; assay: Gene delivery efficiency (luciferase gene) with varied amounts of DNA, B16BL6 cells; format: cell-based; settings: DNA:liposome 1:12 (w/w), luciferase gene 0.5, 1, 2 and 5 μg tested, FIGS. 2a-2c
# Experimental: Mouse melanoma cells […] were inoculated in MEM(minimum essential medium, Gibco-BRL, USA) containing 5% (v/v) fetal bovine serum, streptomycin and penicillin, and incubated in an incubator(NAPCO, USA) under an environment of 5% (v/v) CO2 at 37° C., which were aliquoted in 24-well plate to reach the cell density of 1×10^5 cell/well or 5×10^4 cell/well, and further incubated for 24 hrs to stabilize the cells.
# (§1) For the evaluation of gene delivery efficiency of liposomes with varied amount of DNA, DNA-liposome complex was prepared by mixing DNA and liposome(1:12, w/w) in 500 μl of serum-free medium, while varying the amounts of luciferase gene as 0.5 μg, 1 μg, 2 μg and 5 μg. […] After incubation, media were discarded, cells were lysed by adding 100 μl of Luciferase cell culture lysis reagent(Promega, USA), and centrifuged at 14000 rpm for 10 sec. And then, 10 μl of supernatant was mixed with 20 μl of a substrate of luciferase, and luminescence was measured by using Luminometer(Mini lumat LB9506, EG&G BERTHOLD). Proteins in each well were quantitated by DC protein assay(Bio-rad, USA)(see: FIGS. 1a-1c and 2a-2c).
# [2] = system: 293 human kidney cell line; assay: Gene delivery efficiency (luciferase gene) with varied amounts of DNA, 293 cells; format: cell-based; settings: DNA:liposome 1:12 (w/w), luciferase gene 0.5, 1, 2 and 5 μg tested, FIGS. 1a-1c
# Experimental: as §1
Substance,amount of DNA showing the highest gene delivery efficiency [1],amount of DNA showing the highest gene delivery efficiency [2]
lysine-aspartate-hexadecanol [KD-DP],0.5 µg,2 µg
lysine-aspartate-tetradecanol [KD-DM],1 µg,1 µg
lysine-glutamate-tetradecanol [KE-DM],–,2 µg
